Source: paper PMC7933930, “Development of a small molecule that corrects misfolding and increases secretion of Z α1‐antitrypsin” (EMBO Molecular Medicine, 2021)

Tests used:
[1] = system: α1‐antitrypsin variants M, S, Baghdad, Z; assay: Association with α1‐antitrypsin variants M, S, Baghdad and Z (intrinsic tryptophan fluorescence); type: binding, human; settings: 10 μM GSK716
Source text: Polymerisation of α1‐antitrypsin involves transition through a transient intermediate state known as M*, that is readily populated by the Z variant (Dafforn et al, 1999; Knaupp et al, 2010). The M* conformational ensemble appears to be a distinct species between the native state conformation and that of the final polymer. One of the hallmarks of M* is its recognition by environment‐sensitive fluorescent reporter dyes. Thermal shift assays that make use of the dye SYPRO Orange report the stability of the protein native state against heat‐induced unfolding. […] Native state stability can also be probed by equilibrium unfolding using chemical denaturants, where a peak in bis‐ANS fluorescence corresponds with a maximally populated unfolding intermediate (James & Bottomley, 1998). […] The association of GSK716 induced a marked quenching and blue‐shift of the α1‐antitrypsin intrinsic tryptophan fluorescence spectrum (Fig 4D, inset). The rate of change in fluorescence during association of 10µM GSK716 was proportional to the propensity of α1‐antitrypsin mutants to form polymers in vivo: inert (M), mild (S), moderate (Baghdad) and severe (Z) α1‐antitrypsin (Fig 4D, top and bottom). […]

Muscarinic M1 = target: T1, Muscarinic M1 (Homo sapiens, UniProt P11229); assay: Off‐target panel: Muscarinic M1 (DRX); type: cell-based
T1 sequence (P11229 1-460): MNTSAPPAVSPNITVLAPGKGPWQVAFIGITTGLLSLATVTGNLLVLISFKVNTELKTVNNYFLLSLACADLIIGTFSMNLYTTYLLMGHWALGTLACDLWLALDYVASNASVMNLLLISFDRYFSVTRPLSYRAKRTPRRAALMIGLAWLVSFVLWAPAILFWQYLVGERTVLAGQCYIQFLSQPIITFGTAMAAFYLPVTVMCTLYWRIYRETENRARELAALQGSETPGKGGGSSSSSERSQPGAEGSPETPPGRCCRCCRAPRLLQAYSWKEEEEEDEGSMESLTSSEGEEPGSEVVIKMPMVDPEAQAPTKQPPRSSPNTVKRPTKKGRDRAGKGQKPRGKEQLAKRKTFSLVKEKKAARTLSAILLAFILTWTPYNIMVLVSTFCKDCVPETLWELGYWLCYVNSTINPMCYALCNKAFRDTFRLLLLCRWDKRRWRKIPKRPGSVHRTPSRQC
Protocol: (§1) GSK716 selectivity and PK properties were profiled in order to investigate the suitability of GSK716 for progression into in vivo studies and the potential for taking it forward as a clinical candidate for testing in humans. Since GSK716 results in loss of inhibitory activity of α1‐antitrypsin, the effect of the compound was assessed on other closely related serpins. […] Furthermore, there were no off‐target effects in a panel of assays considered predictive of known safety liabilities that precluded further development of GSK716 (Table EV1).

Vasopressin V1a = Vasopressin V1a (Homo sapiens, UniProt P37288); assay: Off‐target panel: Vasopressin V1a; type: cell-based; settings: Antagonist, read-out: Mean (PXC50) (converted)
Vasopressin V1a, sequence (P37288 whole entry): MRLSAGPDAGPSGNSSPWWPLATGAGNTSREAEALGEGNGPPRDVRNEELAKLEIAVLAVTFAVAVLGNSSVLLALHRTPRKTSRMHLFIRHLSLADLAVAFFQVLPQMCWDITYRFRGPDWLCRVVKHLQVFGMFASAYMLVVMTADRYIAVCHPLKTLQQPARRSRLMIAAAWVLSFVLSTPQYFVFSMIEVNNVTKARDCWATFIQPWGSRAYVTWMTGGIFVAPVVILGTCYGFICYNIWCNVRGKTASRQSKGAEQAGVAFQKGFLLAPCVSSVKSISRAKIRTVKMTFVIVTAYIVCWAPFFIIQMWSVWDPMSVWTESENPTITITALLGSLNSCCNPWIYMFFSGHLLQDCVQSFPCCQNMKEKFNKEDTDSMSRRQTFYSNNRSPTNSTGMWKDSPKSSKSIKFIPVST
Protocol: as §1

[2] = target: Norepinephrine transporter (Homo sapiens, UniProt P23975); assay: Off‐target panel: Norepinephrine transporter; type: cell-based
Norepinephrine transporter, sequence (P23975 whole entry, species assumed): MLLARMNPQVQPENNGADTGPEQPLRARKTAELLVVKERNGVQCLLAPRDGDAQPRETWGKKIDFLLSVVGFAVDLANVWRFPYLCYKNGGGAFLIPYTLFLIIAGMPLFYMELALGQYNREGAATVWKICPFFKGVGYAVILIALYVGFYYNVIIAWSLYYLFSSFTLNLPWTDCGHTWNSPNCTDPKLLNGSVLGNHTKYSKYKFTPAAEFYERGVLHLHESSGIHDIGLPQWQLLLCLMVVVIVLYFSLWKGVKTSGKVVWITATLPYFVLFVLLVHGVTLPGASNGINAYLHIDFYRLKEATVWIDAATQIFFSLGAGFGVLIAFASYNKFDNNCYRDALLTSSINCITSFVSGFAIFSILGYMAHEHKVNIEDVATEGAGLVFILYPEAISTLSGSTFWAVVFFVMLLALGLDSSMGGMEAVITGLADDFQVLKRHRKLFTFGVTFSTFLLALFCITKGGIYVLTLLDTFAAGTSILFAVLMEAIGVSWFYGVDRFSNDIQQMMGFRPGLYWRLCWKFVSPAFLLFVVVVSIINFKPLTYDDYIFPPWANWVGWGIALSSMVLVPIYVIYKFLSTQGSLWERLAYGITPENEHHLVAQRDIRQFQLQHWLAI
Protocol: as §1

human hepatocytes = assay: Hepatocyte clearance, human; type: in vitro ADME
Protocol: Williams E media supplemented with 2 mM L‐glutamine and 25 mM HEPES and test compound (final compound concentration 0.5 µM; final DMSO concentration 0.25% v/v) were preincubated at 37°C prior to the addition of a suspension of cryopreserved pooled hepatocytes (final cell density 0.5 × 10^6 viable cells/ml) to initiate the reaction. The final incubation volume was 500 µl. The reactions were stopped by transferring 50 µl of incubate to 100 µl acetonitrile containing internal standard at the appropriate time points (0, 5, 10, 20, 40 and 60 min, 0, 10, 20, 40, 60 and 120 min or 0, 20, 40, 60, 120 and 240 min). The control (lysed cells or vehicle) was incubated for 60, 120 or 240 min only. The termination plates were centrifuged at 2,500 rpm at 4°C for 30 min to precipitate the protein. Following protein precipitation, the sample supernatants were analysed by LC‐MS/MS. From a plot of loge peak area ratio (compound peak area/internal standard peak area) against time, the gradient of the line was determined and half‐life (t½) and intrinsic clearance (CLint) were calculated.

In the case of `CCC[C@@H](NC(=O)c1cccc2c1CC(=O)N2)[C@@H](O)c1cccc(F)c1C` [GSK716], the “binding / rate of association across α1‐antitrypsin variants” value [1] is reported as “M < S < Baghdad < Z α1‐antitrypsin”, the EC50 (Muscarinic M1) is reported as over 50.1 µM and the IC50 (Muscarinic M1) is reported as over 50.1 µM. For the same compound, the IC50 (Vasopressin V1a) was 39.8 µM, the IC50 [2] was over 100 µM and the “metabolic clearance in human hepatocytes” value (human hepatocytes) was 0.31 ml/min/g tissue.
